{"source": "paper PMC9061999", "about": "“Application of the Adverse Outcome Pathway Concept to In Vitro Nephrotoxicity Assessment: Kidney Injury due to Receptor-Mediated Endocytosis and Lysosomal Overload as a Case Study” (Frontiers in Toxicology, 2022)", "key": {"RPTEC/TERT1 cells": {"system": "RPTEC/TERT1 cells", "assay": "Cathepsin D immunofluorescence (KE2, disruption of lysosomes)", "assay_type": "cell-based, human", "procedure": "For immunocytochemistry experiments, cells were seeded into 8-well chamber slides (Ibidi) at a density of 140 cells per µL in 300 µL growth medium and were allowed to grow for 48 h (NRK-52E) or 10 d (RPTEC/TERT1) respectively. For treatment, stock solutions (1,000 µM) of compounds dissolved in growth medium were freshly prepared and serial dilutions were made before exposure of cells for 24 h. After treatment, cells were washed twice with 150 µL PBS and fixed with 150 µL 4% paraformaldehyde in 1 x PBS for 10 min at room temperature. […]\nAfter incubation with primary antibody, cells were washed three times for 15 min with 0.2% Tween in 1 x PBS (150 µL) on an orbital shaker. […] To preserve fluorescence 50–100 µL DAPI mounting medium (Vectashield®; Vectorlab, Biozol) was added to the cells and chamber slides were stored at 4°C in the dark until image acquisition.\nImages were taken with a TCS SP5 II confocal microscope with an HCX PL APO lambda blue 63.0 × 1.40 OIL UV objective (Leica Microsystems, Wetzlar, GER) (n = 10 cells/treatment group). […] Before quantification, images were blinded and randomized. Quantification of fluorescence intensity was performed using NIH Image® software. […] The mean values of the pixel intensities were automatically calculated by the software and imported in Excel for further processing."}, "[1]": {"system": "RPTEC/TERT1 and NRK-52E cells", "assay": "In vitro key event assays (LAMP-1/2, cathepsin D, cell viability) compared across both cell models", "assay_type": "cell-based, human and rat", "procedure": "Cells were plated into 96-well tissue culture plates (10,000 cells per well) and were allowed to grow for 48 h (NRK-52E) respectively 10 d (RPTEC/TERT1) prior to 24 h treatment with model stressors. Stock solution for each compound (2000 µM) was prepared in growth medium and serial dilutions (1:1) were made before each experiment. At the end of the 24 h treatment, cell viability was measured using the CellTiter-Glo® assay (Promega). CellTiter-Glo® reagents and buffer were mixed under light-protected conditions and 100 µL CellTiter-Glo® solution was added directly to each well followed by 2 min incubation on an orbital shaker and 10 min incubation at room temperature in the dark to stabilize the luminescence signal. The suspension was mixed via pipetting and 50 µL were transferred into white 96-well plates (PerkinElmer Inc.). The luminescence signal was measured on a multiplate reader (Mithras LB 940; Berthold). Each assay was performed in three independent experiments carried out in triplicates.\nFor immunocytochemistry experiments, cells were seeded into 8-well chamber slides (Ibidi) at a density of 140 cells per µL in 300 µL growth medium and were allowed to grow for 48 h (NRK-52E) or 10 d (RPTEC/TERT1) respectively. For treatment, stock solutions (1,000 µM) of compounds dissolved in growth medium were freshly prepared and serial dilutions were made before exposure of cells for 24 h. After treatment, cells were washed twice with 150 µL PBS and fixed with 150 µL 4% paraformaldehyde in 1 x PBS for 10 min at room temperature. After fixation, cells were washed 10 min with 150 µL PBS on an orbital shaker followed by permeabilization with 150 µL 0.2% Triton X-100 in 1 x PBS for 5 min at room temperature on an orbital shaker. The permeabilized cells were washed twice with 1 x PBS (150 µL) for 10 min at room temperature on an orbital shaker and then incubated with 150 µL 5% BSA dissolved in 1 x PBS for 1 h at room temperature to block unspecific binding sites. After blocking, 100 µL primary antibody diluted 1:100 in 1% BSA in 1 x PBS were directly pipetted onto the cells and incubated overnight at 4°C. The following antibodies were employed for NRK-52E cells: Anti-LAMP-1 monoclonal IgG1 kappa mouse antibody (Santa Cruz; sc-20011), anti-Cathepsin D mouse monoclonal IgG2 kappa antibody (Santa Cruz; sc-377124); for RPTEC/TERT1 cells: Anti-LAMP-2 monoclonal mouse antibody (Santa Cruz; sc-18822), anti-Cathepsin D mouse monoclonal IgG2b kappa (Novus Biologicals; NBP1-04278); for both cell lines anti-megalin mouse monoclonal IgG1 antibody (Santa Cruz, sc-515772).\nAfter incubation with primary antibody, cells were washed three times for 15 min with 0.2% Tween in 1 x PBS (150 µL) on an orbital shaker. Cells were incubated for 1 h at room temperature with 100 µL CFL 488-conjugated mouse IgG kappa binding protein (1:50) (m-IgGκ BP-CFL 488; Santa Cruz, sc-516176). After incubation the cells were washed three times for 15 min with 0.2% Tween in 1 x PBS on an orbital shaker and once with 150 µL sterile water. Phalloidin-tetramethylrhodamine B isothiocyanate (TRITC) was used to stain the cytoskeleton and was diluted in 100% methanol to a stock concentration of 0.1 mg/ml and further diluted in 1 x PBS to a working concentration of 0.095 µM. After cells were washed once with 1 x PBS for 10 min at room temperature 150 µL phalloidin-TRITC working solution was added and the cells were incubated on an orbital shaker at room temperature for 60–90 min. After incubation, phalloidin-TRITC solution was aspirated, and the cells were washed once with 1 x PBS. Chamber slides were allowed to dry for 15 min at room temperature. To preserve fluorescence 50–100 µL DAPI mounting medium (Vectashield®; Vectorlab, Biozol) was added to the cells and chamber slides were stored at 4°C in the dark until image acquisition. […]"}}, "data": [{"substance": "Polymyxin B", "values": [{"measurement": "BMC10, KE2", "setting": "RPTEC/TERT1 cells; in vitro POD from KE dose-response, cathepsin D intensity, RPTEC/TERT1, 24 h treatment, n = 3", "value": 6.8, "unit": "µM"}, {"measurement": "MOE, KE2", "setting": "RPTEC/TERT1 cells; margin of exposure: BMC10 in RPTEC/TERT1 vs human plasma/serum concentration (cmax or css)", "value": "1.7 - 11.9"}, {"measurement": "Cytotoxicity compared between RPTEC/TERT1 and NRK-52E cells", "setting": "[1]; 24 h treatment, cell viability", "value": "RPTEC/TERT1 cells were found to be significantly more sensitive"}, {"measurement": "Rank order of effects of the 3 polymyxin derivatives across all KEs", "setting": "[1]; RPTEC/TERT1 and NRK-52E, 24 h", "value": "most active"}, {"measurement": "Effect on cathepsin D fluorescence intensity (KE2)", "setting": "[1]; RPTEC/TERT1 and NRK-52E, 24 h, immunocytochemistry, quantitative image analysis", "value": "concentration-dependent decrease in fluorescence intensity"}, {"measurement": "Effect on LAMP-1/2 expression (KE1)", "setting": "[1]; RPTEC/TERT1 and NRK-52E, 24 h, immunofluorescence image analysis", "value": "significant, concentration-dependent increase in LAMP-1/2 expression"}, {"measurement": "Effect on cell viability / cytotoxicity (KE3)", "setting": "[1]; RPTEC/TERT1 and NRK-52E, 24 h treatment, CellTiter-Glo", "value": "concentration-dependent decrease in cell viability"}]}]}
